# Test results from BindingDB's records for doi:10.1016/j.bioorg.2016.01.004 (University of Karachi, 2016).
# Assays:
# [1] = target: Carboxylic ester hydrolase (Equus caballus, UniProt Q9N1N9); assay: AChE and BChE Inhibition Activity; conditions: pH 8
# Procedure: (§1) Inhibitory activities of AChE and BChE were evaluated by using the Ellman's method [34]. […] For initial screening each compound was dissolved in DMSO (end concentration of DMSO was less than 1% in assay) and tested at a final concentration of 0.5 mM. The compounds with considerable inhibition (more than 50%) were subjected to further analysis by making their 8 to 10 serial dilutions in assay buffer (50 mM Tris-HCl, 0.1 M NaCl and 0.02 M MgCl2, pH 8.0). Reaction mixture comprised of 20 µL assay buffer, 10 µL of test compound, 10 µL of 0.031 U/mL of enzyme (0.5 and 3.4 U/mg of AChE or BuChE respectively). This mixture was incubated at 25 °C for 10 min. After this preincubation, enzymatic reaction was started by addition of 10 µL of 1 mM acetylethiocholine iodide or butyrylthiocholine chloride (depending on the enzyme) and the mixture was incubated again for 15 min. The amount of enzymatic product was esti
# [2] = target: Acetylcholinesterase (Electrophorus electricus, UniProt O42275); assay: AChE and BChE Inhibition Activity; conditions: pH 8
# Procedure: as §1
# Carboxylic ester hydrolase, sequence (Q9N1N9 whole entry): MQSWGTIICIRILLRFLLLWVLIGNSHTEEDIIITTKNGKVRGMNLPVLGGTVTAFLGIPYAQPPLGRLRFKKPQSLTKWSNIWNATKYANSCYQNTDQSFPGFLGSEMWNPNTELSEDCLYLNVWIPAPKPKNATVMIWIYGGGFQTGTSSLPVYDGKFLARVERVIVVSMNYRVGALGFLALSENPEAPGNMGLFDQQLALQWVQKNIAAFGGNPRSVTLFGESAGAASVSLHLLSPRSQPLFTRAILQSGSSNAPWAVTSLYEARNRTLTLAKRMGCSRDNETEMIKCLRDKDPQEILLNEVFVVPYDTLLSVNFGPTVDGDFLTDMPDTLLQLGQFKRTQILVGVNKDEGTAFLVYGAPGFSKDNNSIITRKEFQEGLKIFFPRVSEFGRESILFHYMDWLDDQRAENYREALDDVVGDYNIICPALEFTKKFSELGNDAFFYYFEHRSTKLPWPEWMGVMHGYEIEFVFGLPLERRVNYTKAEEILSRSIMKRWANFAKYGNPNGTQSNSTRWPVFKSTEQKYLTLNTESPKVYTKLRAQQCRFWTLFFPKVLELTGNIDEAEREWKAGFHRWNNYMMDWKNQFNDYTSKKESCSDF
# Acetylcholinesterase, sequence (O42275 whole entry): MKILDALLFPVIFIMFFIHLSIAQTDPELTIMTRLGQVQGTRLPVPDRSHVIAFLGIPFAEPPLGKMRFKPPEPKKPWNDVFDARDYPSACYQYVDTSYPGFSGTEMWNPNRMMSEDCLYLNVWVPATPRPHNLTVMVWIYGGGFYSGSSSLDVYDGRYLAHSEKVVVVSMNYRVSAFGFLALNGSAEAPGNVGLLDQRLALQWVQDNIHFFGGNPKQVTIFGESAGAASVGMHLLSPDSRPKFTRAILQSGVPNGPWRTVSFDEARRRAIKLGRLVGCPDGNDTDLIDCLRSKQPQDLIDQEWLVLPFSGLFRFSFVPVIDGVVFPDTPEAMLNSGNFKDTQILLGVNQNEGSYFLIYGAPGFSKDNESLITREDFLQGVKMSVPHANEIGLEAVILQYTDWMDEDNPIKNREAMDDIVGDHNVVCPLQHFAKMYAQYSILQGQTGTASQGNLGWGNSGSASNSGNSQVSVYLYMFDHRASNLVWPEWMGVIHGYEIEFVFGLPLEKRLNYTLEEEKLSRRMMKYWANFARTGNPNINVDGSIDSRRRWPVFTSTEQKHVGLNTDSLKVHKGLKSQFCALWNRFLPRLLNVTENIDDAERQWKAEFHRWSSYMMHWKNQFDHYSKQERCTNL
Structure (SMILES),IC50 [1] [µM],IC50 [2] [µM]
"COc1ccccc1C1=C(C#N)C(=C(C#N)c2nnn[nH]2)NC(C)(c2ccccc2OC)C1 (centres undefined) [2-(Cyano(1H-tetrazol-5-yl)methylene)-6-methyl-4,6-bis(2'/2''-methoxyphenyl)-1,2,5,6-tetrahydronicotinonitrile (2g)]",0.29,20.3
"CC1(c2cccc(Cl)c2)CC(c2cccc(Cl)c2)=C(C#N)C(=C(C#N)c2nnn[nH]2)N1 (centres undefined) [2-(Cyano(1H-tetrazol-5-yl)methylene)-6-methyl-4,6-bis(3'/3''-chlorophenyl)-1,2,5,6-tetrahydronicotinonitrile (2e)]",2.78,2.32
"COc1cccc(C2=C(C#N)C(=C(C#N)c3nnn[nH]3)NC(C)(c3cccc(OC)c3)C2)c1 (centres undefined) [2-(Cyano(1H-tetrazol-5-yl)methylene)-6-methyl-4,6-bis(3'/3''-methoxyphenyl)-1,2,5,6-tetrahydronicotinonitrile (2f)]",39.2,5.11
"Cc1cccc(C2=C(C#N)C(=C(C#N)c3nnn[nH]3)NC(C)(c3cccc(C)c3)C2)c1 (centres undefined) [2-(Cyano(1H-tetrazol-5-yl)methylene)-6-methyl-4,6-bis(3'/3''-methylphenyl)-1,2,5,6-tetrahydronicotinonitrile (2c)]",62.2,20.8
"CC1(c2ccc(F)cc2)CC(c2ccc(F)cc2)=C(C#N)C(=C(C#N)c2nnn[nH]2)N1 (centres undefined) [2-(Cyano(1H-tetrazol-5-yl)methylene)-6-methyl-4,6-bis(4'/4''-fluorophenyl)-1,2,5,6-tetrahydronicotinonitrile (2d)]",38.8,2.01
"CC1(c2ccc(O)cc2)CC(c2ccc(O)cc2)=C(C#N)C(=C(C#N)c2nnn[nH]2)N1 (centres undefined) [2-(Cyano(1H-tetrazol-5-yl)methylene)-6-methyl-4,6-bis(4'/4''-hydroxyphenyl)-1,2,5,6-tetrahydronicotinonitrile (2h)]",2.45,7.42
"Cc1ccc(C2=C(C#N)C(=C(C#N)c3nnn[nH]3)NC(C)(c3ccc(C)cc3)C2)cc1 (centres undefined) [2-(Cyano(1H-tetrazol-5-yl)methylene)-6-methyl-4,6-bis(4'/4''-methylphenyl)-1,2,5,6-tetrahydronicotinonitrile (2b)]",5.87,4.45
"CC1(c2ccccc2)CC(c2ccccc2)=C(C#N)C(=C(C#N)c2nnn[nH]2)N1 (centres undefined) [2-(Cyano(1H-tetrazol-5-yl)methylene)-6-methyl-4,6-bis(phenyl)-1,2,5,6-tetrahydronicotinonitrile (2a)]",22.1,7.02
"CC1(c2ccccc2)CC(c2ccccc2)=C(C#N)C(=C(C#N)C#N)N1 (centres undefined) [2-Dicyanomethylene-6-methyl-4,6-bis(phenyl)-1,2,5,6-tetrahydronicotinonitrile (5a)]",48.1,20.3
"CC1(c2cccc(F)c2)CC(c2cccc(F)c2)=C(C#N)C(=C(C#N)C#N)N1 (centres undefined) [2-[3-cyano-4,6-bis(3-fluorophenyl)-6-methyl-1,2,5,6-tetrahydropyridin-2-ylidene]propanedinitrile (5f)]",68.8,8.01
"COc1cccc(C2=C(C#N)C(=C(C#N)C#N)NC(C)(c3cccc(OC)c3)C2)c1 (centres undefined) [2-[3-cyano-4,6-bis(3-methoxyphenyl)-6-methyl-1,2,5,6-tetrahydropyridin-2-ylidene]propanedinitrile (5g)]",48.2,1.56
"CC1(c2ccc(F)cc2)CC(c2ccc(F)cc2)=C(C#N)C(=C(C#N)C#N)N1 (centres undefined) [2-[3-cyano-4,6-bis(4-fluorophenyl)-6-methyl-1,2,5,6-tetrahydropyridin-2-ylidene]propanedinitrile (5d)]",55.2,11.9
"CC1(c2ccc(O)cc2)CC(c2ccc(O)cc2)=C(C#N)C(=C(C#N)C#N)N1 (centres undefined) [2-[3-cyano-4,6-bis(4-hydroxyphenyl)-6-methyl-1,2,5,6-tetrahydropyridin-2-ylidene]propanedinitrile (5h)]",42.2,5.38
"CC1(c2ccc(I)cc2)CC(c2ccc(I)cc2)=C(C#N)C(=C(C#N)C#N)N1 (centres undefined) [2-[3-cyano-4,6-bis(4-iodophenyl)-6-methyl-1,2,5,6-tetrahydropyridin-2-ylidene]propanedinitrile (5e)]",45.3,11.2
"Cc1cccc(C2=C(C#N)C(=C(C#N)C#N)NC(C)(c3cccc(C)c3)C2)c1 (centres undefined) [2-[3-cyano-6-methyl-4,6-bis(3-methylphenyl)-1,2,5,6-tetrahydropyridin-2-ylidene]propanedinitrile (5c)]",35.9,5.21
"Cc1ccc(C2=C(C#N)C(=C(C#N)C#N)NC(C)(c3ccc(C)cc3)C2)cc1 (centres undefined) [2-[3-cyano-6-methyl-4,6-bis(4-methylphenyl)-1,2,5,6-tetrahydropyridin-2-ylidene]propanedinitrile (5b)]",36.5,16.9
CN(C)C(=O)Oc1cccc([N+](C)(C)C)c1 [m-Trimethylammoniumphenyldimethylcarbamate],43.2,19.3
